Reference: ChEMBL document CHEMBL2062478, “Targeted kinase selectivity from kinase profiling data” (ACS Med Chem Lett, 2012)

Legend:
[1] = molecular target: Cell division cycle 7-related protein kinase (Homo sapiens, UniProt O00311); assay: Inhibition of CDC7
[2] = molecular target: Cyclin-dependent kinase 1 (Homo sapiens, UniProt P06493); assay: Inhibition of CDC2
[3] = molecular target: Platelet-derived growth factor receptor alpha (Homo sapiens, UniProt P16234); assay: Inhibition of PDGFRA
[4] = molecular target: Tyrosine-protein kinase Lck (Homo sapiens, UniProt P06239); assay: Inhibition of LCK
[5] = molecular target: Epidermal growth factor receptor (Homo sapiens, UniProt P00533); assay: Inhibition of EGFR
Sequence of Epidermal growth factor receptor (P00533 whole entry): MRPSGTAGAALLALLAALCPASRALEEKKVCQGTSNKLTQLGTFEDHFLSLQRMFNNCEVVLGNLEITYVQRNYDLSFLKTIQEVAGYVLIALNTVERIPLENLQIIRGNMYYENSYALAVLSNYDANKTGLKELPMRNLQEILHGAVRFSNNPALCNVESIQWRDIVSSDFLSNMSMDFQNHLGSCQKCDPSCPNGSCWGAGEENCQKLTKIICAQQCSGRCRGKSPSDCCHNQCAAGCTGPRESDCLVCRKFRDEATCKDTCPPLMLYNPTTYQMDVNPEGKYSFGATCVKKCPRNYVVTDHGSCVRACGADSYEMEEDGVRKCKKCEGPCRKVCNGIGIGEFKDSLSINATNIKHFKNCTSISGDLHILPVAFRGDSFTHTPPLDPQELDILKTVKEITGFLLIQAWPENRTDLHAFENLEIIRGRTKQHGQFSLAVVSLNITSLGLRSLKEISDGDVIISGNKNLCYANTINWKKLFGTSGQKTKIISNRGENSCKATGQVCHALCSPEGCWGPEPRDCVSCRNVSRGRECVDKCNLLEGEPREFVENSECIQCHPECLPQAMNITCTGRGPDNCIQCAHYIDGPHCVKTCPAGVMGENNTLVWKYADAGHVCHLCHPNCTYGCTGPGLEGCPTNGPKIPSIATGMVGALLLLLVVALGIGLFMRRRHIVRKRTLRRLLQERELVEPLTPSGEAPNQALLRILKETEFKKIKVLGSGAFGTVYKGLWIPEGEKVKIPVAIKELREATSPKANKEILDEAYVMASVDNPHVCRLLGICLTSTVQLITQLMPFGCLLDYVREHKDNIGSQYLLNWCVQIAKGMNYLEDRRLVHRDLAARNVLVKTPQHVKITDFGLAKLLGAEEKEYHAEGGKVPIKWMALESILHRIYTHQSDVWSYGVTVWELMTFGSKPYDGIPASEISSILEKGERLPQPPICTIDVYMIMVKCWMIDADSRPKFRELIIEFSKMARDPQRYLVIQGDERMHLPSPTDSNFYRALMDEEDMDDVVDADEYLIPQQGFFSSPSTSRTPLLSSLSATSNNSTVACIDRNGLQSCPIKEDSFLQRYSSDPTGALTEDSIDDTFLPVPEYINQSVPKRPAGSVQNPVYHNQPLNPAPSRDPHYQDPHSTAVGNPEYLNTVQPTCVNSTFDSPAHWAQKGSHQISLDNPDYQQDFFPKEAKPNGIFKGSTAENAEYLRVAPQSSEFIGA

Sequence of Cyclin-dependent kinase 1 (P06493 whole entry): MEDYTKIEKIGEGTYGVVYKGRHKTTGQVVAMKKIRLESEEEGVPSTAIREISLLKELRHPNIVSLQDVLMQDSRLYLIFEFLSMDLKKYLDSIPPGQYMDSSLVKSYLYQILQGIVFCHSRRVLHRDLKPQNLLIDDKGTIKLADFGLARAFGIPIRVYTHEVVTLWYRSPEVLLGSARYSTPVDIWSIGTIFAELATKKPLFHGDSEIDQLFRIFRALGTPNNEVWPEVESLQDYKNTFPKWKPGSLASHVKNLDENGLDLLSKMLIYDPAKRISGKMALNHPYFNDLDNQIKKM
Sequence of Platelet-derived growth factor receptor alpha (P16234 whole entry): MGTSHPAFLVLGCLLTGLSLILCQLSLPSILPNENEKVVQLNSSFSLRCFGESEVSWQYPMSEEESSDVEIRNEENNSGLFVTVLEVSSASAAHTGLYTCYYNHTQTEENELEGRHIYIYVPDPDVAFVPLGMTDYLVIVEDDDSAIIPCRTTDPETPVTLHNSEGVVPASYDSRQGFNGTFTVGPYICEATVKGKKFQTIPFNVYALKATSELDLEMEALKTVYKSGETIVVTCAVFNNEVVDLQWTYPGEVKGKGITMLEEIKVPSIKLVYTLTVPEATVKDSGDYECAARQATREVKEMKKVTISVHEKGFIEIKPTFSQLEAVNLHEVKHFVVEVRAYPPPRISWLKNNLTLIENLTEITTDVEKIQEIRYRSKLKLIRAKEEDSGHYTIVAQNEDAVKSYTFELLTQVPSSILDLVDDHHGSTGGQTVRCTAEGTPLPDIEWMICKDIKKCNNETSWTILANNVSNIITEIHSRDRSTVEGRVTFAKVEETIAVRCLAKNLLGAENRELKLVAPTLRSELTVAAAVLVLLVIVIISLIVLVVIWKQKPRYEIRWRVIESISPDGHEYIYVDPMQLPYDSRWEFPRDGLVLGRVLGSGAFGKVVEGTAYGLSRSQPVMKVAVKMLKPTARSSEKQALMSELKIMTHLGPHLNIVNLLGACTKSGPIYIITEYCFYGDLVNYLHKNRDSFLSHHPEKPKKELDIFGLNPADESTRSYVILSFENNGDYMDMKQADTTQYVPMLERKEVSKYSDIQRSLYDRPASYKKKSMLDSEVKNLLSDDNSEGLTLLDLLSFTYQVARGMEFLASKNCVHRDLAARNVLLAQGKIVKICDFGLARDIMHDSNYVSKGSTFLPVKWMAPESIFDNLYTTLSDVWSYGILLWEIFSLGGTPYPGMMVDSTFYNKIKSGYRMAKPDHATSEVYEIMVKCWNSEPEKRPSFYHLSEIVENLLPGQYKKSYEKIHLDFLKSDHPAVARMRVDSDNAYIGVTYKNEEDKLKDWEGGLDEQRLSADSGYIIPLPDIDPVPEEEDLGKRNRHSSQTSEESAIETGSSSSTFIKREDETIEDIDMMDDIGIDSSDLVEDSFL
Sequence of Cell division cycle 7-related protein kinase (O00311 whole entry): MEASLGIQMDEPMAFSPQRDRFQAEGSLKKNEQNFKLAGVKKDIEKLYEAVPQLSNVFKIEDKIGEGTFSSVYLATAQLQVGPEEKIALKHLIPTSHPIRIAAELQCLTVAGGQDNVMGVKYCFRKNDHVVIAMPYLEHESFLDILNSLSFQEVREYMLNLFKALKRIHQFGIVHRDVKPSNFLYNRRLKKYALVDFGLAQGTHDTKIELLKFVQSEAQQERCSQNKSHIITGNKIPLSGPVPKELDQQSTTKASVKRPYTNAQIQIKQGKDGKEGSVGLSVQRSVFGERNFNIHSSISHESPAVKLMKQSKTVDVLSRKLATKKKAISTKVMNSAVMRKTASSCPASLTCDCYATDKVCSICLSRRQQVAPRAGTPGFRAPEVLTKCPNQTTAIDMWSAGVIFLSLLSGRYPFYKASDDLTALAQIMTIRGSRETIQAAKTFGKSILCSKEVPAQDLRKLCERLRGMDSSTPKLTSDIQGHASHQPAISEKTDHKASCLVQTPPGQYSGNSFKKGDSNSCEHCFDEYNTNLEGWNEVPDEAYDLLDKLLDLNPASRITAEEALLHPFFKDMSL
Sequence of Tyrosine-protein kinase Lck (P06239 whole entry): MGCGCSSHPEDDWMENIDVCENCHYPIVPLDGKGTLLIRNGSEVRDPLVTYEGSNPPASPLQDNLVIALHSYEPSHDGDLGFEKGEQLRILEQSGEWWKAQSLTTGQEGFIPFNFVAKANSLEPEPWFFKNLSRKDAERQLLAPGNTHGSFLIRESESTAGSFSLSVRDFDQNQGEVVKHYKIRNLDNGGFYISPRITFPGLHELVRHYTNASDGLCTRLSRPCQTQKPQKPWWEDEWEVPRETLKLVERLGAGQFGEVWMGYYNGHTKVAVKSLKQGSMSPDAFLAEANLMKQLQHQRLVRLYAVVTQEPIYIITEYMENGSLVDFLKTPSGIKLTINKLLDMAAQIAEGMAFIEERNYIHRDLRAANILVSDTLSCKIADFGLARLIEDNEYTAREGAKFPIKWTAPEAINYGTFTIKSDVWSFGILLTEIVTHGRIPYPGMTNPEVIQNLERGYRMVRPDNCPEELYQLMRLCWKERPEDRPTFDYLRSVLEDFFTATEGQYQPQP

## CN(C)[C@H]1CC[C@H](Nc2nc(Cl)cc(-c3c[nH]c4ncccc34)n2)CC1
[1]
  Ki: 0.316 nM
[2]
  Ki: > 10000 nM

## O[C@H]1CC[C@H](Nc2nc(Cl)cc(-c3c[nH]c4ncccc34)n2)CC1
[1]
  Ki: 0.158 nM
[2]
  Ki: 39.8 nM

## CC(C)(C(N)=O)n1cc(-c2cnc(N)c3c(-c4ccc(NC(=O)Nc5cccc(F)c5)cc4)csc23)cn1
[3]
  Ki: > 10000 nM

## Cc1cccc(NC(=O)Nc2ccc(-c3csc4c(C#CC(C)(C)N)cnc(N)c34)cc2)c1
[3]
  Ki: > 10000 nM

## O=C(Nc1n[nH]c2ccc(-c3cn(Cc4ccccc4)nn3)cc12)c1cccc(Cl)c1
[2]
  Ki: > 10000 nM

## C[C@@H](O)Cn1cc(-c2cnc(N)c3c(-c4ccc(NC(=O)Nc5cccc(F)c5)cc4)csc23)cn1
[3]
  Ki: > 10000 nM

## O=C(Cc1ccccc1)Nc1cc(-c2nc3sccn3c2-c2ccnc(Nc3ccc(N4CCOCC4)cc3)n2)ccc1Cl
[4]
  Ki: 79.4 nM
[5]
  Ki: > 10000 nM
